Experimental data taken from patent US20090253667A1, “18 ,21-Didesoxymacbecin Derivatives for the Treatment of Cancer” (priority 2006, published 2009).

Key:
[1] = tested on: panel of human tumour cell lines; assay: Monolayer proliferation assay, mean IC70 across the cell line panel; format: cell-based; conditions: geometric mean of all replicates across the six cell lines
Method: (§1) In vitro evaluation of compounds for anticancer activity in a panel of human tumour cell lines in a monolayer proliferation assay were carried out at the Oncotest Testing Facility, Institute for Experimental Oncology, Oncotest GmbH, Freiburg.
(§2) The Oncotest cell lines were established from human tumor xenografts as described by Roth et al., (1999). The origin of the donor xenografts was described by Fiebig et al., (1999). Other cell lines were either obtained from the NCI (DU145, MCF-7) or purchased from DSMZ, Braunschweig, Germany.
(§3) All cell lines, unless otherwise specified, were grown at 37° C. in a humidified atmosphere (95% air, 5% CO2) in a ‘ready-mix’ medium containing RPMI 1640 medium, 10% fetal calf serum, and 0.1 mg/mL gentamicin (PAA, Cölbe, Germany).
(§4) A modified propidium iodide assay was used to assess the effects of the test compound(s) on the growth of human tumour cell lines (Dengler et al., (1995)).
(§5) Briefly, cells were harvested from exponential phase cultures by trypsinization, counted and plated in 96 well flat-bottomed microtitre plates at a cell density dependent on the cell line (5-10.000 viable cells/well). After 24 h recovery to allow the cells to resume exponential growth, 0.010 mL of culture medium (6 control wells per plate) or culture medium containing the 18,21-didesoxymacbecin analogue was added to the wells. Each concentration was plated in triplicate. Compounds were applied in five concentrations (100; 10; 1; 0.1 and 0.01 μg/ml). Following 4 days of continuous exposure, cell culture medium with or without test compound was replaced by 0.2 mL of an aqueous propidium iodide (PI) solution (7 mg/L). To measure the proportion of living cells, cells may be permeabilized by freezing the plates. After thawing the plates, fluorescence was measured using the Cytofluor 4000 microplate reader (excitation 530 nm, emission 620 nm), giving a direct relationship to the total number of viable cells. Growth inhibition may be expressed as treated/control×100 (% T/C). This can be plotted as a graph of % T/C against concentration of test compound applied, which can then be used to calculate the concentration necessary to inhibit cell growth by 70% (IC70).
(§6) In vitro evaluation of the test compounds for anticancer activity in a panel of human tumour cell lines in a monolayer proliferation assay was carried out as described in the general methods using a modified propidium iodide assay.

MEXF 394NL = assay: Monolayer proliferation assay (modified propidium iodide assay); format: cell-based, human; conditions: 4 days continuous exposure
Method: as §1, §2, §3, §4, §5, §6

LXF 1121L = assay: as above; format: cell-based, human; conditions: 4 days continuous exposure
Method: as §1, §2, §3, §4, §5, §6

CNXF 498NL = assay: as above; format: cell-based, human; conditions: 4 days continuous exposure
Method: as §1, §2, §3, §4, §5, §6

DU145 = assay: as above; format: cell-based, human; conditions: 4 days continuous exposure
Method: as §1, §2, §3, §4, §5, §6

CXF HT29 = assay: as above; format: cell-based, human; conditions: 4 days continuous exposure
Method: as §1, §2, §3, §4, §5, §6

MCF-7 = assay: as above; format: cell-based, human; conditions: 4 days continuous exposure
Method: as §1, §2, §3, §4, §5, §6

Yeast Hsp90 = Yeast Hsp90 (Saccharomyces cerevisiae, UniProt P02829); assay: Isothermal titration calorimetry, Kd for Hsp90 binding; conditions: ITC at 30° C., 0.008 mM yeast Hsp90, 2% DMSO
Sequence of Yeast Hsp90 (P02829 whole entry): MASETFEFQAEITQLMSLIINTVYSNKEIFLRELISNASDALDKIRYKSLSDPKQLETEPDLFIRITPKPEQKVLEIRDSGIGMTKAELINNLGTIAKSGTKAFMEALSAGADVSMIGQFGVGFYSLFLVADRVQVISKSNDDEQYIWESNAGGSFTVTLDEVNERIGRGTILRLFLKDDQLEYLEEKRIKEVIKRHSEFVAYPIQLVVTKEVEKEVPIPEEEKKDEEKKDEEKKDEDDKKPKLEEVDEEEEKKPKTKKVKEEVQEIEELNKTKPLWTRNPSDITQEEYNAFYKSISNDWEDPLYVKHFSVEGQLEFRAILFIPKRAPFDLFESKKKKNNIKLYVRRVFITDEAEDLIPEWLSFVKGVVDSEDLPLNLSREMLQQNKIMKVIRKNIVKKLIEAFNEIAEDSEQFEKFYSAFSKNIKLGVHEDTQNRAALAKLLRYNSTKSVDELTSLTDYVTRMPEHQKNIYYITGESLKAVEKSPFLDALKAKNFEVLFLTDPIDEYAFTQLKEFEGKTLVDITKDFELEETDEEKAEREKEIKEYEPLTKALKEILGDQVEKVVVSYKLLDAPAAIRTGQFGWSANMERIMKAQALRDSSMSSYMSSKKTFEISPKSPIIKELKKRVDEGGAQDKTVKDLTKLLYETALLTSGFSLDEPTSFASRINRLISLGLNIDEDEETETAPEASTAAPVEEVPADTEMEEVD
Method: Yeast Hsp90 was dialysed against 20 mM Tris pH 7.5 containing 1 mM EDTA and 5 mM NaCl and then diluted to 0.008 mM in the same buffer, but containing 2% DMSO. The test compounds were dissolved in 100% DMSO at a concentration of 50 mM and subsequently diluted to 0.1 mM in the same buffer as for Hsp90 with 2% DMSO. Heats of interaction were measured at 30° C. on a MSC system (Microcal), with a cell volume of 1.458 mL. 10 aliquots of 0.027 mL of 0.100 mM of each test compound were injected into 0.008 mM yeast Hsp90. Heats of dilution were determined in a separate experiment by injecting the test compound into buffer containing 2% DMSO, and the corrected data fitted using a nonlinear least square curve-fitting algorithm (Microcal Origin) with three floating variables: stoichiometry, binding constant and change in enthalpy of interaction.

Hsp90 = Hsp90 (Homo sapiens, UniProt P07900); conditions: cited from earlier work

CO[C@H]1[C@@H](OC)C[C@H](C)[C@@H](OC)C2=CC(=O)C=C(NC(=O)/C(C)=C/C=C\[C@H](C)[C@@H](OC(N)=O)/C(C)=C/[C@@H]1C)C2=O [macbecin]
average IC70 value across the cell-line panel [1]: 0.21 µg/mL

CO[C@H]1C[C@H](C)Cc2cc(ccc2F)NC(=O)/C(C)=C/CC[C@H](C)[C@@H](OC(N)=O)/C(C)=C/[C@H](C)[C@H]1O [Compound 17, 4,5-dihydro-11-O-desmethyl-15-desmethoxy-17-fluoro-18,21-didesoxymacbecin]
Test/Control (%) at drug concentration (MEXF 394NL; 0.01 μg/mL): 101% | Test/Control (%) at drug concentration (MEXF 394NL; 0.1 μg/mL): 21% | Test/Control (%) at drug concentration (MEXF 394NL; 1 μg/mL): 4% | Test/Control (%) at drug concentration (MEXF 394NL; 10 μg/mL): 3% | Test/Control (%) at drug concentration (MEXF 394NL; 100 μg/mL): 3% | Test/Control (%) at drug concentration (LXF 1121L; 0.01 μg/mL): 100% | Test/Control (%) at drug concentration (LXF 1121L; 0.1 μg/mL): 41% | Test/Control (%) at drug concentration (LXF 1121L; 1 μg/mL): 10% | Test/Control (%) at drug concentration (LXF 1121L; 10 μg/mL): 11% | Test/Control (%) at drug concentration (LXF 1121L; 100 μg/mL): 11% | Test/Control (%) at drug concentration (CNXF 498NL; 0.01 μg/mL): 97% | Test/Control (%) at drug concentration (CNXF 498NL; 0.1 μg/mL): 22% | Test/Control (%) at drug concentration (CNXF 498NL; 1 μg/mL): 7% | Test/Control (%) at drug concentration (CNXF 498NL; 10 μg/mL): 8% | Test/Control (%) at drug concentration (CNXF 498NL; 100 μg/mL): 7% | Test/Control (%) at drug concentration (DU145; DU145, 0.01 μg/mL): 93% | Test/Control (%) at drug concentration (DU145; DU145, 0.1 μg/mL): 7% | Test/Control (%) at drug concentration (DU145; DU145, 1 μg/mL): 8% | Test/Control (%) at drug concentration (DU145; DU145, 10 μg/mL): 10% | Test/Control (%) at drug concentration (DU145; DU145, 100 μg/mL): 9% | Test/Control (%) at drug concentration (CXF HT29; CXF HT29, 0.01 μg/mL): 102% | Test/Control (%) at drug concentration (CXF HT29; CXF HT29, 0.1 μg/mL): 49% | Test/Control (%) at drug concentration (CXF HT29; CXF HT29, 1 μg/mL): 7% | Test/Control (%) at drug concentration (CXF HT29; CXF HT29, 10 μg/mL): 7% | Test/Control (%) at drug concentration (CXF HT29; CXF HT29, 100 μg/mL): 8% | Test/Control (%) at drug concentration (MCF-7; MCF-7, 0.01 μg/mL): 86% | Test/Control (%) at drug concentration (MCF-7; MCF-7, 0.1 μg/mL): 20% | Test/Control (%) at drug concentration (MCF-7; MCF-7, 1 μg/mL): 10% | Test/Control (%) at drug concentration (MCF-7; MCF-7, 10 μg/mL): 10% | Test/Control (%) at drug concentration (MCF-7; MCF-7, 100 μg/mL): 8% | Kd (Yeast Hsp90): 19 nM | average IC70 value across the cell-line panel [1]: 0.106 µg/mL

CO[C@H]1C[C@H](C)Cc2cc(O)cc(c2)NC(=O)/C=C/CC[C@H](OC)[C@@H](OC(N)=O)/C(C)=C/[C@H](C)[C@H]1O [KOSN1559]
binding affinity to Hsp90 relative to 17-AAG (Hsp90; greater binding affinity than 17-AAG): 8 fold | binding affinity to Hsp90 relative to geldanamycin (Hsp90; greater binding affinity than geldanamycin): 4 fold

CO[C@H]1C[C@H](C)Cc2cccc(c2)NC(=O)/C(C)=C/CC[C@H](C)[C@@H](OC(N)=O)/C(C)=C/[C@H](C)[C@H]1O [Compound 16, 4,5-dihydro-11-O-desmethyl-15-desmethoxy-18,21-didesoxymacbecin]
Test/Control (%) at drug concentration (MEXF 394NL; 0.01 μg/mL): 100% | Test/Control (%) at drug concentration (MEXF 394NL; 0.1 μg/mL): 64% | Test/Control (%) at drug concentration (MEXF 394NL; 1 μg/mL): 7% | Test/Control (%) at drug concentration (MEXF 394NL; 10 μg/mL): 5% | Test/Control (%) at drug concentration (MEXF 394NL; 100 μg/mL): 3% | Test/Control (%) at drug concentration (LXF 1121L; 0.01 μg/mL): 106% | Test/Control (%) at drug concentration (LXF 1121L; 0.1 μg/mL): 48% | Test/Control (%) at drug concentration (LXF 1121L; 1 μg/mL): 10% | Test/Control (%) at drug concentration (LXF 1121L; 10 μg/mL): 7% | Test/Control (%) at drug concentration (LXF 1121L; 100 μg/mL): 5% | Test/Control (%) at drug concentration (CNXF 498NL; 0.01 μg/mL): 100% | Test/Control (%) at drug concentration (CNXF 498NL; 0.1 μg/mL): 19% | Test/Control (%) at drug concentration (CNXF 498NL; 1 μg/mL): 8% | Test/Control (%) at drug concentration (CNXF 498NL; 10 μg/mL): 8% | Test/Control (%) at drug concentration (CNXF 498NL; 100 μg/mL): 6% | Test/Control (%) at drug concentration (DU145; DU145, 0.01 μg/mL): 96% | Test/Control (%) at drug concentration (DU145; DU145, 0.1 μg/mL): 47% | Test/Control (%) at drug concentration (DU145; DU145, 1 μg/mL): 8% | Test/Control (%) at drug concentration (DU145; DU145, 10 μg/mL): 8% | Test/Control (%) at drug concentration (DU145; DU145, 100 μg/mL): 8% | Test/Control (%) at drug concentration (CXF HT29; CXF HT29, 0.01 μg/mL): 106% | Test/Control (%) at drug concentration (CXF HT29; CXF HT29, 0.1 μg/mL): 52% | Test/Control (%) at drug concentration (CXF HT29; CXF HT29, 1 μg/mL): 8% | Test/Control (%) at drug concentration (CXF HT29; CXF HT29, 10 μg/mL): 7% | Test/Control (%) at drug concentration (CXF HT29; CXF HT29, 100 μg/mL): 6% | Test/Control (%) at drug concentration (MCF-7; MCF-7, 0.01 μg/mL): 83% | Test/Control (%) at drug concentration (MCF-7; MCF-7, 0.1 μg/mL): 21% | Test/Control (%) at drug concentration (MCF-7; MCF-7, 1 μg/mL): 10% | Test/Control (%) at drug concentration (MCF-7; MCF-7, 10 μg/mL): 11% | Test/Control (%) at drug concentration (MCF-7; MCF-7, 100 μg/mL): 10% | Kd (Yeast Hsp90): 20 nM | average IC70 value across the cell-line panel [1]: 0.193 µg/mL

CO[C@H]1C[C@H](C)Cc2cc(F)cc(c2)NC(=O)/C(C)=C/CC[C@H](C)[C@@H](OC(N)=O)/C(C)=C/[C@H](C)[C@H]1O [Compound 18, 4,5-dihydro-11-O-desmethyl-15-desmethoxy-18-fluoro-18,21-didesoxymacbecin]
Test/Control (%) at drug concentration (MEXF 394NL; 0.01 μg/mL): 91% | Test/Control (%) at drug concentration (MEXF 394NL; 0.1 μg/mL): 24% | Test/Control (%) at drug concentration (MEXF 394NL; 1 μg/mL): 7% | Test/Control (%) at drug concentration (MEXF 394NL; 10 μg/mL): 5% | Test/Control (%) at drug concentration (MEXF 394NL; 100 μg/mL): 4% | Test/Control (%) at drug concentration (LXF 1121L; 0.01 μg/mL): 94% | Test/Control (%) at drug concentration (LXF 1121L; 0.1 μg/mL): 43% | Test/Control (%) at drug concentration (LXF 1121L; 1 μg/mL): 13% | Test/Control (%) at drug concentration (LXF 1121L; 10 μg/mL): 13% | Test/Control (%) at drug concentration (LXF 1121L; 100 μg/mL): 12% | Test/Control (%) at drug concentration (CNXF 498NL; 0.01 μg/mL): 64% | Test/Control (%) at drug concentration (CNXF 498NL; 0.1 μg/mL): 9% | Test/Control (%) at drug concentration (CNXF 498NL; 1 μg/mL): 9% | Test/Control (%) at drug concentration (CNXF 498NL; 10 μg/mL): 11% | Test/Control (%) at drug concentration (CNXF 498NL; 100 μg/mL): 9% | Test/Control (%) at drug concentration (DU145; DU145, 0.01 μg/mL): 66% | Test/Control (%) at drug concentration (DU145; DU145, 0.1 μg/mL): 9% | Test/Control (%) at drug concentration (DU145; DU145, 1 μg/mL): 8% | Test/Control (%) at drug concentration (DU145; DU145, 10 μg/mL): 9% | Test/Control (%) at drug concentration (DU145; DU145, 100 μg/mL): 6% | Test/Control (%) at drug concentration (CXF HT29; CXF HT29, 0.01 μg/mL): 98% | Test/Control (%) at drug concentration (CXF HT29; CXF HT29, 0.1 μg/mL): 14% | Test/Control (%) at drug concentration (CXF HT29; CXF HT29, 1 μg/mL): 11% | Test/Control (%) at drug concentration (CXF HT29; CXF HT29, 10 μg/mL): 13% | Test/Control (%) at drug concentration (CXF HT29; CXF HT29, 100 μg/mL): 11% | Test/Control (%) at drug concentration (MCF-7; MCF-7, 0.01 μg/mL): 77% | Test/Control (%) at drug concentration (MCF-7; MCF-7, 0.1 μg/mL): 27% | Test/Control (%) at drug concentration (MCF-7; MCF-7, 1 μg/mL): 12% | Test/Control (%) at drug concentration (MCF-7; MCF-7, 10 μg/mL): 12% | Test/Control (%) at drug concentration (MCF-7; MCF-7, 100 μg/mL): 8% | Kd (Yeast Hsp90): 23.5 nM | average IC70 value across the cell-line panel [1]: 0.077 µg/mL
